Test [1] deals with T1, human recombinant serotonin (5-Hydroxytryptamine) 5-HT2A receptor (Homo sapiens, UniProt P28223).
T1 construct: expressed in transfected cells; host or cells: CHO-K1
The test is described as follows: Serotonin 5-HT2A radioligand binding ([3H]Ketanserin). The following applies: compound at 0.1 μM, CHO K1 cells; for inhibition at 0.1 µM: read-out: Percentage inhibition of ligand binding, Serotonin 5-HT2A. On the procedure: To evaluate in radioligand binding assays the activity of compounds of the invention, human recombinant serotonin (5-Hydroxytryptamine) 5-HT2A receptor expressed in Chinese hamster ovary (CHO) K1 cells (Bonhaus, D. et al, Br. J. Pharmacol. 115:622, 1995; Saucier, C. et al, J. Neurochem. 68:1998, 1997) in a 50 mM Tris-HCl buffer, pH 7.4, was used. Compounds of the invention were incubated with 0.5 nM [^3H]Ketanserin for 60 min at 25° C. Non-specific binding was estimated in the presence of 1 μM Mianserin. Receptor proteins were filtered and washed, the filters were then counted to determine [^3H]Ketanserin specifically bound. Compounds were screened at 1 μM or lower, using 1% DMSO as vehicle. Biochemical assay results are presented as the percent inhibition of specific binding in Table 4.

In test [2] the target is T2, human recombinant serotonin (5-Hydroxytryptamine) 5-HT6 receptor (Homo sapiens, UniProt P50406).
T2 construct: expressed in transfected cells; host or cells: HeLa
As to the kind of experiment: Serotonin 5-HT6 radioligand binding ([3H]LSD). The following applies: compound at 0.1 μM, HeLa cells; for inhibition at 0.1 µM: read-out: Percentage inhibition of ligand binding, Serotonin 5-HT6; for Percentage inhibition of ligand binding, Serotonin 5-HT6: 0.1 µM. On the procedure:
To evaluate in radioligand binding assays the activity of compounds of the invention, human recombinant serotonin (5-Hydroxytryptamine) 5-HT6 receptor expressed in human HeLa cells (Monsma, F. Jr. et al, Mol. Pharmacol. 43:320, 1993) in a modified Tris-HCl buffer (50 mM Tris-HCl, pH 7.4, 150 mM NaCl, 2 mM Ascorbic Acid, 0.001% BSA) was used. Compounds of the invention were incubated with 1.5 nM [3H]Lysergic acid diethylamide (LSD) for 120 min at 37° C. Non-specific binding was estimated in the presence of 5 μM Serotonin (5-HT). Receptor proteins were filtered and washed, the filters were then counted to determine [3H]LSD specifically bound. Compounds were screened at 1 μM or lower, using 1% DMSO as vehicle. Biochemical assay results are presented as the percent inhibition of specific binding in Table 4.

The target in test [3] is T3, human recombinant dopamine D2L receptor (Homo sapiens, UniProt P14416).
T3 construct: expressed in transfected cells; host or cells: CHO
As to the kind of experiment: Dopamine D2L radioligand binding ([3H]Spiperone). The following applies: compound at 1 μM, CHO cells; for inhibition at 1 µM: read-out: Percentage inhibition of ligand binding, Dopamine D2L; for Percentage inhibition of ligand binding, Dopamine D2L: 1 µM. On the procedure: To evaluate in radioligand binding assays the activity of compounds of the invention, human recombinant dopamine D2L receptor expressed in Chinese hamster ovary (CHO) cells (Grandy, D. et al, Proc. Natl. Acad. Sci. USA. 86:9762, 1989; Hayes, G. et al, Mol. Endocrinol. 6:920, 1992) in a modified Tris-HCl buffer (50 mM Tris-HCl, pH 7.4, 1.4 mM Ascorbic Acid, 0.001% BSA, 150 mM NaCl) was used. Compounds of the invention were incubated with 0.16 nM [^3H]Spiperone for 120 min at 25° C. Non-specific binding was estimated in the presence of 10 μM Haloperidol. Receptor proteins were filtered and washed, the filters were then counted to determine [^3H]Spiperone specifically bound. Compounds were screened at 1 μM or lower, using 1% DMSO as vehicle. Biochemical assay results are presented as the percent inhibition of specific binding in Table 3.

The target in test [4] is T4, human recombinant histamine H1 receptor (Homo sapiens, UniProt P35367).
T4 construct: expressed in transfected cells; host or cells: CHO-K1
The test is described as follows: Histamine H1 radioligand binding ([3H]Pyrilamine). Particulars: compound at 1 μM, 1.2 nM [3H]Pyrilamine, CHO K1 cells; for inhibition at 1 µM: read-out: Histamine H1 Binding (1 μM), percentage inhibition. On the procedure: To evaluate in radioligand binding assays the activity of compounds of the invention, human recombinant histamine H1 receptor expressed in Chinese hamster ovary (CHO) K1 cells (De Backer, M. et al, Biochem. Biophys. Res. Comm. 197(3):1601, 1993) in a modified Tris-HCl buffer (50 mM Tris-HCl, pH 7.4, 2 mM MgCl2, 100 mM NaCl, 250 mM Sucrose) was used. Compounds of the invention were incubated with 1.2 nM [^3H]Pyrilamine for 180 min at 25° C. Non-specific binding was estimated in the presence of 1 μM Pyrilamine. Receptor proteins were filtered and washed, the filters were then counted to determine [^3H]Pyrilamine specifically bound. Compounds were screened at 1 μM or lower, using 1% DMSO as vehicle. Biochemical assay results are presented as the percent inhibition of specific binding in Table 2.

The target in test [5] is T5, human recombinant serotonin (5-Hydroxytryptamine) 5-HT7 receptor (Homo sapiens, UniProt P34969).
T5 construct: expressed in transfected cells; host or cells: CHO
The test is described as follows: Serotonin 5-HT7 radioligand binding ([3H]LSD). Particulars: compound at 0.1 μM, CHO cells; for inhibition at 0.1 µM: read-out: Percentage inhibition of ligand binding, Serotonin 5-HT7. On the procedure: To evaluate in radioligand binding assays the activity of compounds of the invention, human recombinant serotonin (5-Hydroxytryptamine) 5-HT7 receptor expressed in Chinese hamster ovary (CHO) cells (Roth, B. et al, J. Pharmacol. Exp. Ther. 268:1403, 1994; Shen, Y. et al, J. Biol. Chem. 268:18200, 1993) in a modified Tris-HCl buffer (50 mM Tris-HCl, pH 7.4, 10 mM MgCl2, 0.5 mM EDTA) was used. Compounds of invention were incubated with 5.5 nM [^3H] Lysergic acid diethylamide (LSD) for 2 h at 25° C. Non-specific binding was estimated in the presence of 10 μM Serotonin (5-HT). Receptor proteins were filtered and washed, the filters were then counted to determine [^3H]LSD specifically bound. Compounds were screened at 1 μM or lower, using 1% DMSO as vehicle. Biochemical assay results are presented as the percent inhibition of specific binding in Table 4.

In test [6] the target is T6, human recombinant serotonin (5-Hydroxytryptamine) 5-HT2C receptor (Homo sapiens, UniProt P28335).
T6 construct: expressed in transfected cells; host or cells: CHO-K1
T6 sequence (P28335 33-458): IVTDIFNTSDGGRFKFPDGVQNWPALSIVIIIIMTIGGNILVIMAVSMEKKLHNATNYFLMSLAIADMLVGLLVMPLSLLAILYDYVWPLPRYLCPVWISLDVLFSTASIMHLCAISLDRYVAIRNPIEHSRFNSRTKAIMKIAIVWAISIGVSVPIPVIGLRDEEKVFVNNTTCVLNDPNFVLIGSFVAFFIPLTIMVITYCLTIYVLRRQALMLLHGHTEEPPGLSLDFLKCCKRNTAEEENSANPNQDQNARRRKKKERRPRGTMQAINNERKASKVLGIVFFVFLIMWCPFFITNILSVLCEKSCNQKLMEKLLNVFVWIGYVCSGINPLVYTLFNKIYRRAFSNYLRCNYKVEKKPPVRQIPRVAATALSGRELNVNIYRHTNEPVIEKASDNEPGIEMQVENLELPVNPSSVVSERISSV
The test is described as follows: Serotonin 5-HT2C radioligand binding ([3H]Mesulergine). The following applies: compound at 0.1 μM, CHO K1 cells; for inhibition at 0.1 µM: read-out: Percentage inhibition of ligand binding, Serotonin 5-HT2C. On the procedure:
To evaluate in radioligand binding assays the activity of compounds of the invention, human recombinant serotonin (5-Hydroxytryptamine) 5-HT2C receptor expressed in Chinese hamster ovary (CHO) K1 cells (Wolf, W. et al, J. Neurochem. 69:1449, 1997) in a modified Tris-HCl buffer (50 mM Tris-HCl, pH 7.4, 0.1% Ascorbic Acid, 10 μM Pargyline) was used. Compounds of the invention were incubated with 1 nM [^3H]Mesulergine for 60 min at 25° C. Non-specific binding was estimated in the presence of 1 μM Mianserin. Receptor proteins were filtered and washed, the filters were then counted to determine [^3H]Mesulergine specifically bound. Compounds were screened at 1 μM or lower, using 1% DMSO as vehicle. Biochemical assay results are presented as the percent inhibition of specific binding in Table 4.

T5 sequence (P34969 whole entry): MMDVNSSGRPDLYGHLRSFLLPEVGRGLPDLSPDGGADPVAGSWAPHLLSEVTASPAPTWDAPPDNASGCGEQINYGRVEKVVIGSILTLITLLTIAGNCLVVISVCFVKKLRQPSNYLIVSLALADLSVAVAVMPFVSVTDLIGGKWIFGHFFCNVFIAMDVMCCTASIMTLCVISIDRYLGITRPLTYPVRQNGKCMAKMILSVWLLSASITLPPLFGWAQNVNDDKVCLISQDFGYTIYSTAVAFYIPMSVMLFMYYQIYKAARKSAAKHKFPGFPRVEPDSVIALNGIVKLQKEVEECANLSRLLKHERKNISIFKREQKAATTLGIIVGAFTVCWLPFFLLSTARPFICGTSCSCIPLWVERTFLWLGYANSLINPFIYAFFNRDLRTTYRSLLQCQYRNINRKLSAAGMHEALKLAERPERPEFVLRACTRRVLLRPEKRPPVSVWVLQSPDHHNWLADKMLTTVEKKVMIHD
T3 sequence (P14416 whole entry): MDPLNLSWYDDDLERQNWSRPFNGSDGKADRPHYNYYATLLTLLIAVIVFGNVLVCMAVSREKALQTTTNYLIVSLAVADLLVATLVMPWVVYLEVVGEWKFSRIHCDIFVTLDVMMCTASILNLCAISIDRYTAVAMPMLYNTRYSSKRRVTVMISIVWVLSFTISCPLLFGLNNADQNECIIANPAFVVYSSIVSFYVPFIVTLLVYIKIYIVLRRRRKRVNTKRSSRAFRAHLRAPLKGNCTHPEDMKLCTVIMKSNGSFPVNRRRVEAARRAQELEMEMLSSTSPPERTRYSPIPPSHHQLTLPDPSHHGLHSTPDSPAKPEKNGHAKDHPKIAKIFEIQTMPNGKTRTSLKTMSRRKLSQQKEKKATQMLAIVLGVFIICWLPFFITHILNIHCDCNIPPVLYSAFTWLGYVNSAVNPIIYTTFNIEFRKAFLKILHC
T4 sequence (P35367 whole entry): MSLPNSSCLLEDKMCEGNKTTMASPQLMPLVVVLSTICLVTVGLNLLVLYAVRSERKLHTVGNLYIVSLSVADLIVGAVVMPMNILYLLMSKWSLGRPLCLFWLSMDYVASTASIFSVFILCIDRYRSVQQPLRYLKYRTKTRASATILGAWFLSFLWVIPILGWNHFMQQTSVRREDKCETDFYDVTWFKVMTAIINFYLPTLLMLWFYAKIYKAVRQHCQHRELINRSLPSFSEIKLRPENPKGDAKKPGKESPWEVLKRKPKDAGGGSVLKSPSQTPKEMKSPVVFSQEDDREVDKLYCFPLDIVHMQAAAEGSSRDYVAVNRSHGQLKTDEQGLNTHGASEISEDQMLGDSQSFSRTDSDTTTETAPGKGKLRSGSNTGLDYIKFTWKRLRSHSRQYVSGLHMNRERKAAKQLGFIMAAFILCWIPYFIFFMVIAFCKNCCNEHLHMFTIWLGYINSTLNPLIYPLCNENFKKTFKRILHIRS
T2 sequence (P50406 whole entry): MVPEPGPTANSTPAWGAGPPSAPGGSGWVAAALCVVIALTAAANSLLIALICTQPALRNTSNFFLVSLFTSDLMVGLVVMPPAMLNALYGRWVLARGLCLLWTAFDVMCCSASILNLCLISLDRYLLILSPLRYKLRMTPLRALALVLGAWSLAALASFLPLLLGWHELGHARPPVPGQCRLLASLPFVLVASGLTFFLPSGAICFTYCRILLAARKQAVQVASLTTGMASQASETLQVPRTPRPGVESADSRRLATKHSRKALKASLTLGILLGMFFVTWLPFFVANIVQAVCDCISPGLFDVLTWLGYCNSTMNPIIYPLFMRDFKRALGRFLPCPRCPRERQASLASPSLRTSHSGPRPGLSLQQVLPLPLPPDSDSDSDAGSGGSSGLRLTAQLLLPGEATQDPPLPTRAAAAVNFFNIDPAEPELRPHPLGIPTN
T1 sequence (P28223 whole entry): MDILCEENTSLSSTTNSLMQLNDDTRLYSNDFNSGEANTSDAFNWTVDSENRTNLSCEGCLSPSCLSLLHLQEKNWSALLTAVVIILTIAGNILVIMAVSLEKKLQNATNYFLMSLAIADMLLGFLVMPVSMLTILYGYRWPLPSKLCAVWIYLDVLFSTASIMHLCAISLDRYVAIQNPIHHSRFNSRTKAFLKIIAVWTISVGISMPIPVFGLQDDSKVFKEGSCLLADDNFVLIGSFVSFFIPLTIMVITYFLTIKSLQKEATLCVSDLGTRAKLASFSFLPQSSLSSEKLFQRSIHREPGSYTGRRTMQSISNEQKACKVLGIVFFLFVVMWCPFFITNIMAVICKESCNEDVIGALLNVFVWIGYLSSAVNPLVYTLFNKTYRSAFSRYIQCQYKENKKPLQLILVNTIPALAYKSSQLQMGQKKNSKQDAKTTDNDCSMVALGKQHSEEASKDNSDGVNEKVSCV

`Cc1ccc2c(c1)c1c3n2CC(c2ccc(F)cc2)=CCC3(C)CN(C)C1` (stereo not drawn) [Compound 1, 6-(4-fluoro-phenyl)-2,3a,10-trimethyl-1,2,3,3a,4,7-hexahydro-2,7a-diaza-cyclohepta[jk]fluorene]: the inhibition at 0.1 µM in test [1] came to 56%; in test [2] it was 8%; in test [5], 26%; in test [6] it was 45%. Also, the inhibition at 1 µM was found to be 12% in test [3] and 11% in test [4].

Take `Cc1ccc2c(c1)c1c3n2CC(c2ccc(F)cc2)CC3(C)CN(C)C1` (stereo not drawn) [Compound 2]: in test [1] (0.1 µM), the “Percentage inhibition of ligand binding, Serotonin 5-HT2A” value was 49%. Also, the “Percentage inhibition of ligand binding, Serotonin 5-HT6” value in test [2] is given as 12%. Further, the “Percentage inhibition of ligand binding, Dopamine D2L” value in test [3] worked out at 13%. Besides, the “Histamine H1 Binding (1 μM), percentage inhibition” value in test [4] amounted to 63%. The “Percentage inhibition of ligand binding, Serotonin 5-HT7” value in test [5] (0.1 µM) came out at 34%. The “Percentage inhibition of ligand binding, Serotonin 5-HT2C” value in test [6] (0.1 µM) stood at 36%.

With `Cc1ccc2c(c1)c1c3n2CCC(c2ccc(F)cc2)CC3(C)CN(C)C1` (stereo not drawn) [Compound 3], the inhibition at 0.1 µM in test [1] was 45%; in test [2] it was 10%; in test [5], 46%; in test [6] it was 39%. Also, the values for the inhibition at 1 µM in test [3] and in test [4] were 22% and 78%, respectively.

As for `Cc1ccc2c(c1)c1c3n2CC(c2ccncc2)CC3(C)CN(C)C1` (stereo not drawn) [Compound 4], the inhibition at 0.1 µM in test [1] worked out at 47%; in test [2], 6%; in test [5] it was 38%; in test [6], 35%. For the same molecule, the inhibition at 1 µM was found to be 14% in test [3] and 12% in test [4].

As for `Cc1ccc2c(c1)c1c3n2CC=C(c2ccc(F)cc2)CC3(C)CN(C)C1` (stereo not drawn) [Compound 5], the inhibition at 0.1 µM in test [1] is 54%; in test [2], 39%; in test [5], 35%; in test [6] it was 32%. Further, the values for the inhibition at 1 µM in test [3] and in test [4] were 60% and 94%, respectively.

On to `Cc1ccc2c(c1)c1c3n2CC(c2ccc(F)cc2)CC3(C)CN(C)C1` (stereo not drawn) [Compound 6], for which the figures for the inhibition at 0.1 µM in test [1], in test [5] and in test [6] were 54%, 39% and 38%, respectively. In test [2], the “Percentage inhibition of ligand binding, Serotonin 5-HT6” value amounted to 35%. Moreover, in test [3], the “Percentage inhibition of ligand binding, Dopamine D2L” value turned out to be 6%. Moreover, in test [4], the inhibition at 1 µM stood at 51%.

Regarding `Cc1ccc2c(c1)c1c3n2CC(c2ccc(F)cc2)CCC3(C)CN(C)C1` (stereo not drawn) [Compound 7, 6-(4-fluoro-phenyl)-2,3a,10-trimethyl-1,2,3,3a,4,5,6,7-octahydro-2,7a-diaza-cyclohepta[jk]fluorene], the inhibition at 0.1 µM in test [1] is 57%; in test [2] it was 6%; in test [5], 54%; in test [6], 41%. Further, the figures for the inhibition at 1 µM in test [3] and in test [4] were 0% and 19%, respectively.

Regarding `Cc1ccc2c(c1)c1c3n2CC(c2ccncc2)OC(C)CC3(C)CN(C)C1` (stereo not drawn) [Compound 8], the inhibition at 0.1 µM in test [1] was found to be 68%; in test [2], 4%; in test [5], 55%; in test [6] it was 54%. Moreover, the inhibition at 1 µM in test [3] came to 13%; in test [4], 6%.

In the case of `Cc1ccc2c(c1)c1c3n2CC(C)(c2ccncc2)OC(C)CC3(C)CN(C)C1` (stereo not drawn) [Compound 9], the inhibition at 0.1 µM came to 87% in test [1], 21% in test [2], 57% in test [5] and 73% in test [6]. For the same molecule, the inhibition at 1 µM in test [3] was determined as 2%; in test [4] it was 6%.

(Values after US9040519B2, “Fused tetracyclic pyrido [4,3-B] indole and pyrido [3,4-B] indole derivatives and methods of use” (Medivation Technologies, Inc., priority 2010, dated 2015).)
